In patent US7989466B2, “Methods to inhibit or augment an inflammatory response” (Cambridge Enterprise Limited, priority 1999, dated 2011):
Read-outs that look alike come from different tables or passages of the source. No end group written: not given here.

Key:
[1] = test system: IL8 induced human monocyte migration; test: Human monocyte migration, IL8; type: cell-based; settings: n.s. = no statistically significant inhibition
Experimental: Agents may also be screened in a chemotactic assay which employs human neutrophils, eosinophils, mast cells, basophils, platelets, lymphocytes or monocytes. For monocytes, 9 mls of fresh blood are transferred to a tube containing 1 ml of 3.8% sodium citrate, and left at room temperature for 15 minutes. Five mls of this anti-coagulated blood are carefully layered over 3.5 ml Polymorphprep® (Nycomed Pharma, Oslo), and centrifuged at 500 g for 35 minutes per the manufacturer's instructions. The top band at the sample/medium interface contains monocytes. The monocytes are carefully removed with a glass pipette, and reconstituted to the original volume (5 ml). The cells are washed with PBS plus 10% fetal calf serum, and centrifuged at 400 g for 10 minutes. The washing step is repeated three times before the cells are counted. Cells are resuspended at 1×10^7 cells/ml in RPMI-1640+10% fetal calf serum (FCS). The monocytes are cultured for two days at 37° C. in a humidified atmosphere of 5% CO2.
On day 2, the cells are counted, spun down, and reconstituted to 1×10^7 cells/ml in Gey's balanced salt solution+1 mg/ml bovine serum albumin (BSA). […]

HIV (IIIb), T-tropic = settings: 100 μM peptide; for effect on HIV infection / replication in Jurkat cells, in words: reverse transcriptase assay; for inhibition of reverse transcriptase activity: Jurkat cells, HIV IIIb
HIV (MN) = test: HIV infectivity of THP-1 cells, p24gag immunofluorescence; type: cell-based; settings: 100 μM peptide, HIV strain MN, 72 hours
Experimental: (a) HIV (IIIb) replication in cultures of Jurkat T-cells was estimated by measuring the supernatant reverse transcriptase activity two weeks after infection. Peptide 2 and peptide 3 were at 100 μM final concentration and SDF-1α was added at 100 ng/ml final concentration 1 hour prior to exposure to virus. Values are mean±SEM from 12 wells, expressed as the percentage of the reverse transcriptase activity in the supernatant from the control wells. The experiment shown is typical of six separate experiments. (b) HIV (IIIb) infectivity of Jurkat T-cells was estimated by staining cells treated identically to those in (a) for p24^gag expression. Values are mean±S.D. percentage of cells stained for p24gag averaged from 12 fields of view from each of two separate wells. (c) HIV (MN) infectivity of THP-1 cells measured as in (b). MIP-1α was used at 100 ng/ml final concentration. (d) Immunofluorescence micrographs of THP-1 cells 48 hours after exposure to HIV (MN) in the absence (top panel) or presence (lower panel) of 100 μM peptide 3, stained for p24^gag. Several cells in the upper panel, but not the lower panel, show strong, punctuate staining for p24^gag antigen. Both fields of view contain 40-50 cells (assessed by Hoeschst 33345 staining viewed under UV illumination conditions).
Jurkat cells following HIV infection were attached to 8-well chamber slides (Becton-Dickinson) by spinning the slides using a plate rotor in a Labofuge centrifuge (Haeraeus) at 3,000×g for 5 minutes. Attached Jurkat cells or THP-1 cells were then fixed by dipping the slides into ice-cold 70% ethanol for 90 seconds. […] A threshold was then applied to each image which was the lowest threshold that detected <1% of the pixels of an image of uninfected cells stained under identical conditions. The number of objects exceeding this threshold in each field of view were counted. This process, for example, detected 9 objects in the field of view shown in the upper panel of FIG. 54D and 1 object in the field of view shown in the lower panel. […]

Sequence	% inhibition at 100 μM versus IL8, human monocyte migration [1]	effect on HIV infection / replication in Jurkat cells, in words (HIV (IIIb), T-tropic; listed as Peptide 3(1-12)[MCP-1])	effect on HIV infection / replication in Jurkat cells, in words (HIV (IIIb), T-tropic; listed as peptide 3)	inhibition of HIV infectivity of THP-1 cells, p24gag staining (HIV (MN))	inhibition of HIV infectivity of THP-1 cells, p24gag staining (HIV (MN); listed as second peptide, spanning amino acids 51 to 62 of human MCP-1)	inhibition of reverse transcriptase activity (HIV (IIIb), T-tropic)	inhibition of reverse transcriptase activity (HIV (IIIb), T-tropic; listed as Peptide 2)	inhibition of reverse transcriptase activity (HIV (IIIb), T-tropic; listed as peptide 2)	effect on HIV infection / replication in Jurkat cells, in words (HIV (IIIb), T-tropic)
EICADPKQKWVQ [peptide 3(1-12)[MCP-1]]	106%	effective inhibitor of Jurkat cell infection by HIV	but not peptide 3 (100 μM) markedly inhibited virus replication	more than 80%	83±7%				
SYRRITSSKCPKEAV [peptide 2(1-15)[MCP-1]]	n.s.			28±5%		75±10%	75%	75%	more effective than peptide 3(1-12)[MCP-1] (SEQ ID NO:1), and as effective as SDF1α
